Patent publication US20220290200A1, “GENETICALLY MODIFIED HOST CELLS PRODUCING GLYCOSYLATED CANNABINOIDS” (OCTARINE BIO IVS, priority 2019, published 2022)
Where two headings read alike, the source gives them in different places.

Columns and labels:
[1] = system: Caco-2 cells; assay: Caco-2 bi-directional permeability assay; type: in vitro ADME, human; conditions: for efflux ratio compared to CBD / permeability coefficient (Papp) A to B and B to A compared to unmodified CBD: Caco-2, 10 μM; for efflux ratio compared to CBD / permeability coefficient (Papp) A to B and B to A compared to unmodified CBD / Mean recovery (%), Direction A→B / Mean Papp, Direction A→B / Mean recovery (%), Direction B→A / Mean Papp, Direction B→A: 120 min; for % recovery compared to CBD: Caco-2, both compartments; for Mean recovery (%), Direction A→B / Mean Papp, Direction A→B: apical to basolateral; for Mean Papp, Direction A→B / Mean Papp, Direction B→A: mean and standard deviation of duplicates; for Mean recovery (%), Direction B→A / Mean Papp, Direction B→A: basolateral to apical; for Efflux ratio: ratio of B−A and A−B permeabilities
Protocol: (§1) Intestinal permeability of cannabinoids and glycosylated cannabinoids was determined by measuring bi-directional transport across Caco-2 cell membranes. Caco-2 cells are used as an in vitro model of the human intestinal epithelium and permit assessment of the intestinal permeability of potential drugs. The test compound is added to either the apical or basolateral side of a confluent monolayer of Caco-2 cells and permeability is measured by monitoring the appearance of the test compound on the opposite side of the monolayer using LC-MS/QTOF. When performing a bi-directional assay, the efflux ratio (ER) is calculated from the ratio of B−A and A−B permeabilities. Caco-2 cells obtained from the ATCC are used between passage numbers 40-60. Cells are seeded onto Millipore Multiscreen Transwell plates at 1×10^5 cells/cm2. The cells are cultured in DMEM and media is changed every two or three days. On day 20 the permeability study is performed. Cell culture and assay incubations are carried out at 37° C. in an atmosphere of 5% CO2 with a relative humidity of 95%. On the day of the assay, the monolayers are prepared by rinsing both apical and basolateral surfaces twice with Hanks Balanced Salt Solution (HBSS) at the desired pH warmed to 37° C. Cells are then incubated with HBSS at the desired pH in both apical and basolateral compartments for 40 min to stabilize physiological parameters. 10 mM solutions of cannabinoids and cannabinoid glycosides are prepared in DMSO then diluted with assay buffer to give a final test compound concentration of 10 μM (final DMSO concentration of 1% v/v). The fluorescent integrity marker lucifer yellow is also included in the solution.
(§2) Analytical standards are prepared from test compound DMSO dilutions and transferred to buffer, maintaining a 1% v/v DMSO concentration. For assessment of A−B permeability, HBSS is removed from the apical compartment and replaced with test compound solution. The apical compartment insert is then placed into a companion plate containing fresh buffer (containing 1% v/v DMSO). For assessment of B−A permeability, HBSS is removed from the companion plate and replaced with test compound solution. Fresh buffer (containing 1% v/v DMSO) is added to the apical compartment insert, which is then placed into the companion plate. At 120 min the apical compartment inserts and the companion plates are separated and apical and basolateral samples diluted for analysis. Test compound permeability is assessed in duplicate. Compounds of known permeability characteristics are run as controls on each assay plate. Test and control compounds are quantified by LC-MS/QTOF as described above. The starting concentration (C0) is determined from the solution and the experimental recovery calculated from C0 and both apical and basolateral compartment concentrations. The integrity of the monolayer throughout the experiment is checked by monitoring lucifer yellow permeation using fluorometric analysis. The permeability coefficient (Papp) for each compound is calculated from the following equation: Papp=(dQ/dt)/(C0×A) Where dQ/dt is the rate of permeation of the drug across the cells, C0 is the donor compartment concentration at time zero and A is the area of the cell monolayer. C0 is obtained from analysis of the dosing solution. The efflux ratio (ER) is calculated from mean Papp values from A−B and B−A data. This is derived from: ER=Papp(B−A)/Papp(A−B). The % recovery is calculated from the following equation; % recovery=(Total compound in donor and receiver compartment at end of experiment)/(initial compound present)×100.
(§3) CBD glycosides were produced using glycosyl transferases and purified as described above. […] Low recovery of compound in a Caco-2 permeability assay can indicate problems with poor solubility, binding of the compound to the plate, metabolism by the Caco-2 cells or accumulation of the compound in the cell monolayer.

[2] = Caco-2 bi-directional permeability assay; type: in vitro ADME, human; conditions: human
Protocol: as §1, §2, §3

[3] = In vitro enzymatic cascade converting sucrose and CBD to CBD glycosides; type: biochemical; conditions: enzymes added: GmSuSy, Cs73Y
Excerpt: In the previous examples, in vitro glycosyl transferase assays required the addition of an “activated” sugar (e.g. UDP-glucose), which is typically an extremely expensive reagent, furthermore, other activated sugars e.g. UDP-rhamnose are not available commercially and must be custom synthesized at high-cost and difficulty. […] To facilitate the low-cost production of cannabinoid glycosides not only with glucose, but with alternative sugars, an enzymatic cascade was set up to convert cannabinoids and the simple sugar sucrose into various cannabinoid glycosides. The cascade is divided into 3 steps, in step 1 sucrose and uridine diphosphate (UDP) is converted to UDP-glucose by GmSuSy (SEQ ID NO: 209, 210), additionally generating fructose as a bi-product. In step 2, UDP-glucose is interconverted to alternative UDP-sugars using a range of enzymes. For example, conversion of UDP-glucose to UDP-galactose by BsGa/E, multiple enzymes can also be used to produce UDP-sugars via other UDP-sugar intermediates. For example, conversion of UDP-glucose to UDP-glucuronic acid by AtUGDH1 combined with conversion of UDP-glucuronic acid to UDP-xylose by AtUXS3. In step 3, glycosyl transferases convert the activated sugar and a cannabinoid acceptor to the corresponding cannabinoid glycoside. For example, conversion of UDP-rhamnose and CBD to CBD-1′-O-β-D-rhamnoside (OB13) by Cs73Y (SEQ ID NO: 157, 158).
Enzymes were purified and the in vitro assay performed as described in Example 13 and the reaction mixture set up as shown in table 57. Enzymes and co-factors were added as required for each individual reaction. Samples were extracted and analyzed as stated above.

Row | Compound | efflux ratio compared to CBD [1] | permeability coefficient (Papp) A to B and B to A compared to unmodified CBD [1] | % recovery compared to CBD [1] | Mean recovery (%), Direction A→B [1] | Mean Papp, Direction A→B [1] | Mean recovery (%), Direction B→A [1] | Mean Papp, Direction B→A [1] | Efflux ratio [1] | recovery at 120 min, 10 μM ([2]; Caco-2, apical to basolateral, 120 min, read-out: Mean recovery (%), Direction A→B) | recovery at 120 min, 10 μM ([2]; Caco-2, basolateral to apical, 120 min, read-out: Mean recovery (%), Direction B→A) | Papp A→B at 120 min, 10 μM ([2]; Caco-2, apical to basolateral, 120 min, mean and standard deviation of duplicates, read-out: Mean Papp, Direction A→B) | Papp B→A at 120 min, 10 μM ([2]; Caco-2, basolateral to apical, 120 min, mean and standard deviation of duplicates, read-out: Mean Papp, Direction B→A) | efflux ratio at 120 min, 10 μM ([2]; Caco-2, ratio of B−A and A−B permeabilities) | % Conversion of CBD and sucrose to CBD glycoside [3]
1 | C=C(C)[C@@H]1CCC(C)=C[C@H]1c1c(O)cc(CCCCC)cc1O[C@@H]1O[C@H](CO)[C@@H](O)[C@H](O)[C@H]1O [OB1, CBD-1′-O-β-D-glucoside] | higher efflux ratio | significantly higher permeability coefficients in both directions | successively higher rates of recovery | 69.8% | 10.40 ± 0.31 10^−6 cms^−1 | 79.7% | 35.70 ± 0.34 10^−6 cms^−1 | 3.43 |  |  |  |  |  | 
2 | C=C(C)[C@@H]1CCC(C)=C[C@H]1c1c(O)cc(CCCCC)cc1O [CBD, cannabidiol, reference compound] |  |  |  |  |  |  |  |  | 16.4% | 48.8% | 6.1 ± 0.3 nm/s | 14.5 ± 6.4 nm/s | 2.37 | 
3 | C=C(C)[C@@H]1CCC(C)=C[C@H]1c1c(O[C@@H]2O[C@H](CO)[C@@H](O)[C@H](O)[C@H]2O)cc(CCCCC)cc1O[C@@H]1O[C@H](CO)[C@@H](O)[C@H](O)[C@H]1O [OB6, CBD-1′-O-β-D-glucosyl-3′-O-β-D-glucoside] | higher than both CBD and OB1 | permeability coefficients were lower | successively higher rates of recovery | 91.9% | 0.10 ± 0.05 10^−6 cms^−1 | 87.8% | 0.44 ± 0.17 10^−6 cms^−1 | 4.31 |  |  |  |  |  | 91.3%
